How the values were obtained:
[1] = tested on: eastern subterranean termites (EST), Reticulitermes flavipes (Kollar); assay: Test #1 Choice Feeding Bait Test, Halofenozide+Hexaflumuron (treated filter paper vs. untreated SYP); format: in vivo; settings: for % Surviving: 26 days; for mg consumed after 12 days (Mean ± SEM), treated FP: choice vs. SYP
Experimental: (§1) Test #1 Choice Feeding Bait Test, Halofenozide+Hexaflumuron. A paired choice feeding test was conducted to compare feeding response and resultant mortality caused by various combinations of technical grade halofenozide and hexaflumuron treated on filter paper (acetone carrier). The test apparatus consisted of two round plastic containers connected by a 7-cm long piece of 2.5-mm diameter (ID) tygon tubing. A known number of termite workers were introduced into a central harborage chamber (5.5 cm round container with ventilated lid) containing a vermiculite/sand/water mixture of ca. 1:1:1. The central harborage chamber was connected by the tygon tubing to the bait foraging chamber (without sand/vermiculite matrix) containing the paired feeding choices.
ESTs were given the choice to feed between untreated blocks of southern yellow pine (SYP) and treated filter paper. Halofenozide was tested individually at concentrations of 1250, 2500, and 5000 ppm. Hexaflumuron was tested at 5000 ppm, and also combined with each of the aforementioned concentrations of halofenozide. For comparative purposes, technical grade noviflumuron were also tested at 5000 ppm. After twelve days, all treatments were removed, oven-dried, and weighed for consumption. Filter paper was placed in all bioassay units that were held for fourteen more days. Surviving termites were then counted in each replicate. Thus, survival was counted at 26 days after initial exposure to the toxicant. Each treatment was replicated four times with 50 termites per replicate.

[2] = tested on: eastern subterranean termites (EST), Reticulitermes flavipes (Kollar); assay: Test #2 Choice Feeding Bait Test, Halofenozide+Noviflumuron (treated filter paper vs. untreated SYP); format: in vivo; settings: for mg consumed after 14 days (Mean ± SEM), untreated SYP: SYP block offered against FP with single active 5000 ppm; for No. Survivors/50 after 14 days (Mean ± SEM) / % Surviving / mg consumed after 14 days (Mean ± SEM), treated FP: single active 5000 ppm on filter paper; for % Surviving: 14 days; for mg consumed after 14 days (Mean ± SEM), treated FP: choice vs. SYP
Experimental: as §1
Test #2. Choice Feeding Bait Test, Halofenozide+Noviflumuron. A standard paired choice feeding test using the same methods described in Test #1 was conducted to compare feeding response and resultant mortality caused by various combinations of technical grade halofenozide and noviflumuron treated on filter paper (acetone carrier). EST were given the choice to feed between untreated blocks of southern yellow pine (SYP) and treated filter paper. Halofenozide and noviflumuron were tested individually at concentrations of 5000 ppm. Five thousand ppm (5000-ppm) noviflumuron was also tested in combination with 1250, 2500, or 5000 ppm halofenozide. After fourteen days, all treatments were removed, oven-dried, and weighed for consumption. Because of the rapid activity of noviflumuron, surviving termites were also counted in each replicate after only 14 days of feeding. Each treatment was replicated four times with 50 termites per replicate.

Amitermes wheeleri = assay: Forced feeding test on treated purified cellulosic bait; format: in vivo; settings: 5000 ppm noviflumuron on cellulosic bait
Experimental: A forced feeding test was conducted to compare mortality caused by different active ingredients treated on purified cellulosic bait. The test apparatus was the same as that described in Example 5. Noviflumuron was tested on the bait at 5000-ppm concentration, and also in combination with 5000-ppm Halofenozide Blank bait was also tested. Surviving termites were also counted at 28 days after initial exposure to the toxicant.

C. formosanus [3] = assay: Feeding ecdysteroid-treated filter paper to subterranean termites, 12-day exposure; format: in vivo; settings: for days of exposure until some termites exhibited the jackknife position (incomplete molting): treated filter paper
Experimental: (§2) Termites were collected from three colonies each of C. formosanus and R. flavipes and were held in the laboratory at 26±1° C. and 98±2% RH before use Technical grade ecdysone was dissolved in methanol to obtain 0.1, 1, 10, 100 and 1,000-ppm solutions by serial dilution. Methanol solutions (i.e., 0 ppm AI) were used as untreated controls. Each concentration solution (0.2 ml) was pipetted onto […] Whatman No. 1 filter paper fitted into 5-cm-diameter glass Petri dishes and allowed to evaporate overnight.
(§3) This filter paper served as the cellulose food source for twenty-five termites, plus one soldier for R. flavipes or three soldiers for C. formosanus, which were introduced into each Petri dish after moistening the filter paper with 0.175 ml deionized water. For each species, two subsamples each of three colonies were used per concentration for a total of 72 experimental units. The bioassay units was held at 26±1° C. Observation was made daily for 12 days. Termites showing symptoms of incomplete molting were counted, and dead termites were removed from each unit. […] For each treatment and species combination, mean percent termites showing symptoms of incomplete molting and mortality among concentrations at 12 day were arcsine-root transformed and subjected to the analysis of variance (ANOVA). Significant differences (α=0.05) among concentrations were separated using Fisher's least significant difference (LSD) test (SAS Institute 1999).
(§4) 20-hydroxyecdysone is an ecdysone byproduct. Technical grade 20-hydroxyecdysone (20 E) was dissolved and used in the same manners as was ecdysone, as discussed above in Example 1.

R. flavipes = assay: as above; format: in vivo; settings: for days of exposure until some termites exhibited the jackknife position (incomplete molting): treated filter paper
Experimental: as §2, §3, §4

C. formosanus [4] = settings: C. formosanus, 10,000 ppm, similar condition; cited from earlier work
[5] = tested on: eastern subterranean termites (Reticulitermes flavipes); settings: wood slice feeding blocks vacuum-impregnated with halofenozide, choice test; cited from earlier work
[6] = SYP block offered against FP with single active 5000 ppm
[7] = single active 5000 ppm on filter paper
[8] = C. formosanus, 0.1 ppm, 12-day exposure
[9] = C. formosanus, 1 ppm, 12-day exposure
[10] = C. formosanus, 10 ppm, 12-day exposure
[11] = C. formosanus, 100 ppm, 12-day exposure
[12] = R. flavipes, 0.1 ppm, 12-day exposure
[13] = R. flavipes, 1 ppm, 12-day exposure
[14] = R. flavipes, 10 ppm, 12-day exposure
[15] = R. flavipes, 100 ppm, 12-day exposure
[16] = C. formosanus, 1,000 ppm, 12-day exposure
[17] = C. formosanus, 1,000 ppm, 12-day exposure, listed as 20 E
[18] = R. flavipes, 1,000 ppm, 12-day exposure
[19] = single active 1250 ppm on filter paper
[20] = single active 2500 ppm on filter paper

SMILES | mg consumed after 12 days (Mean ± SEM), untreated SYP [1, 6] | No. Survivors/50 after 26 days (Mean ± SEM) [1, 7] | % Surviving [1, 7] [%] | mg consumed after 12 days (Mean ± SEM), treated FP [1, 7] [a mg] | mg consumed after 14 days (Mean ± SEM), untreated SYP [2] | No. Survivors/50 after 14 days (Mean ± SEM) [2] | % Surviving [2] [%] | mg consumed after 14 days (Mean ± SEM), treated FP [2] [a mg] | % Incomplete Molting (±SE) (C. formosanus [3]; [8]) [a %] | % Incomplete Molting (±SE) (C. formosanus [3]; [9]) [a %] | % Incomplete Molting (±SE) (C. formosanus [3]; [10]) [a %] | % Incomplete Molting (±SE) (C. formosanus [3]; [11]) [a %] | days of exposure until some termites exhibited the jackknife position (incomplete molting) (C. formosanus [3]; C. formosanus) | % Incomplete Molting (±SE) (R. flavipes; [12]) [a %] | % Incomplete Molting (±SE) (R. flavipes; [13]) [a %] | % Incomplete Molting (±SE) (R. flavipes; [14]) [a %] | % Incomplete Molting (±SE) (R. flavipes; [15]) | days of exposure until some termites exhibited the jackknife position (incomplete molting) (R. flavipes; R. flavipes) | further results
O=C(NC(=O)c1c(F)cccc1F)Nc1cc(Cl)c(OC(F)(F)C(F)C(F)(F)F)c(Cl)c1F (stereo not shown) [Noviflumuron, noviflumuron] | 1.77 ± 1.71 b mg | 5.00 ± 3.72 e | 10.0 | 16.17 ± 3.64 | 2.58 ± 1.03 b mg | 13.50 ± 3.52 bc | 27.0 | 14.58 ± 2.20 |  |  |  |  |  |  |  |  |  |  | % Surviving ([2]; listed as noviflumuron): 27%; No. Survivors/30 after 28 days (Amitermes wheeleri): reduced termite survivorship in half; % Surviving (Amitermes wheeleri; 28 days): 43%; No. Survivors/30 after 28 days (Amitermes wheeleri; listed as noviflumuron): 12
O=C(NC(=O)c1c(F)cccc1F)Nc1cc(Cl)c(OC(F)(F)C(F)F)c(Cl)c1 [Hexaflumuron, hexaflumuron] | 9.28 ± 3.55 b mg | 32.5 ± 5.48 bc | 65.0 | 21.20 ± 2.06 |  |  |  |  |  |  |  |  |  |  |  |  |  |  | 
C[C@H]([C@H](O)CCC(C)(C)O)[C@H]1CC[C@@]2(O)C3=CC(=O)[C@@H]4C[C@@H](O)[C@@H](O)C[C@]4(C)[C@H]3CC[C@]12C [ecdysone] |  |  |  |  |  |  |  |  | 0.00 ± 0.00 | 0.00 ± 0.00 | 2.38 ± 2.38 | 8.33 ± 5.95 | approximately 7 days | 0.00 ± 0.00 | 0.00 ± 0.00 | 0.00 ± 0.00 | 0.00 ± 0.00a % | approximately 7 days | mortality at 0.1 ppm (C. formosanus [3]; Coptotermes formosanus, 288 h, C. formosanus, 0.1 ppm, 12-day exposure, read-out: % Mortality (±SE)): 1.79 ± 1.22%; mortality at 1 ppm (C. formosanus [3]; Coptotermes formosanus, 288 h, C. formosanus, 1 ppm, 12-day exposure, read-out: % Mortality (±SE)): 1.19 ± 0.75%; mortality at 10 ppm (C. formosanus [3]; Coptotermes formosanus, 288 h, C. formosanus, 10 ppm, 12-day exposure, read-out: % Mortality (±SE)): 11.3 ± 6.55%; mortality at 100 ppm (C. formosanus [3]; Coptotermes formosanus, 288 h, C. formosanus, 100 ppm, 12-day exposure, read-out: % Mortality (±SE)): 100%; mortality at 1000 ppm (C. formosanus [3]; Coptotermes formosanus, 288 h, C. formosanus, 1,000 ppm, 12-day exposure, read-out: % Mortality (±SE)): 93.5 ± 6.55%; mortality at 0.1 ppm (R. flavipes; Reticulitermes flavipes, 288 h, R. flavipes, 0.1 ppm, 12-day exposure, read-out: % Mortality (±SE)): 0%; mortality at 1 ppm (R. flavipes; Reticulitermes flavipes, 288 h, R. flavipes, 1 ppm, 12-day exposure, read-out: % Mortality (±SE)): 0%; mortality at 10 ppm (R. flavipes; Reticulitermes flavipes, 288 h, R. flavipes, 10 ppm, 12-day exposure, read-out: % Mortality (±SE)): 0%; mortality at 100 ppm (R. flavipes; Reticulitermes flavipes, 288 h, R. flavipes, 100 ppm, 12-day exposure, read-out: % Mortality (±SE)): 60.3 ± 18.1%; mortality at 1000 ppm (R. flavipes; Reticulitermes flavipes, 288 h, R. flavipes, 1,000 ppm, 12-day exposure, read-out: % Mortality (±SE)): 100%
CC(C)(O)CC[C@@H](O)[C@](C)(O)[C@H]1CC[C@@]2(O)C3=CC(=O)[C@@H]4C[C@@H](O)[C@@H](O)C[C@]4(C)[C@H]3CC[C@]12C [20-hydroxyecdysone] |  |  |  |  |  |  |  |  | 0.00 ± 0.00 | 0.00 ± 0.00 | 0.00 ± 0.00 | 2.38 ± 1.19 | approximately 7 days | 0.00 ± 0.00 | 0.00 ± 0.00 | 0.00 ± 0.00 | 3.85 ± 1.40ab % | approximately 7 days | % Mortality (±SE) (C. formosanus [3]; [8]): 1.19 ± 0.75ab %; % Mortality (±SE) (C. formosanus [3]; [9]): 10.12 ± 9.42bc %; % Mortality (±SE) (C. formosanus [3]; [10]): 3.57 ± 2.26abc %; % Mortality (±SE) (C. formosanus [3]; [11]): 11.90 ± 5.43c %; % Incomplete Molting (±SE) (C. formosanus [3]; [16]): 26.19 ± 6.09b %; % Mortality (±SE) (C. formosanus [3]; [16]): 74.40 ± 3.62d %; % Incomplete Molting (±SE) (C. formosanus [3]; [17]): evident; % Mortality (±SE) (C. formosanus [3]; [17]): ca. 75%; % Mortality (±SE) (R. flavipes; [12]): 0.64 ± 0.64a %; % Mortality (±SE) (R. flavipes; [13]): 0.00 ± 0.00a %; % Mortality (±SE) (R. flavipes; [14]): 0.64 ± 0.64a %; % Mortality (±SE) (R. flavipes; [15]): 76.19 ± 11.28b %; % Incomplete Molting (±SE) (R. flavipes; [18]): 7.69 ± 3.29b %; % Mortality (±SE) (R. flavipes; [18]): 100%; % Incomplete Molting (±SE) (R. flavipes; R. flavipes, 1,000 ppm, 12-day exposure, listed as 20 E): evident
CC(C)(C)N(NC(=O)c1ccc(Cl)cc1)C(=O)c1ccccc1 [Halofenozide, halofenozide] | 14.97 ± 3.85 a mg | 23.25 ± 7.88 days | 46.5 | 9.33 ± 1.41 | 8.35 ± 3.91 a mg | 22.25 ± 5.36 b | 44.5 | 10.12 ± 1.48 |  |  |  |  |  |  |  |  |  |  | mg consumed after 12 days (Mean ± SEM), untreated SYP ([1]; SYP block offered against FP with single active 1250 ppm): 9.49 ± 2.57 a mg; mg consumed after 12 days (Mean ± SEM), untreated SYP ([1]; SYP block offered against FP with single active 2500 ppm): 7.92 ± 2.13 a mg; No. Survivors/50 after 26 days (Mean ± SEM) [1, 19]: 45.00 ± 2.04 a; % Surviving [1, 19]: 90.0%; mg consumed after 12 days (Mean ± SEM), treated FP [1, 19]: 16.05 ± 3.39 a mg; No. Survivors/50 after 26 days (Mean ± SEM) [1, 20]: 33.75 ± 6.56 bc; % Surviving [1, 20]: 67.5%; mg consumed after 12 days (Mean ± SEM), treated FP [1, 20]: 18.70 ± 4.32 a mg; mortality (C. formosanus [4]): 50%; concentrations at which feeding deterrence occurs [5]: greater than 4,000 ppm

From US20110189122A1, “Use of Molt-Accelerating Compounds, Ecdysteroids, Analogs Thereof, and Chitin Synthesis Inhibitors for Controlling Termites” (priority 2004, published 2011)
